# From publication PMC5600900 (Journal of medicinal chemistry, 2016)
# Molecular target: WT-CXCL12 (Homo sapiens, UniProt P48061)
# Assay: 2D 1H-15N SOFAST-HMQC NMR titration, binding to WT-CXCL12
# Settings: 2D 1H-15N SOFAST-HMQC screen of docking hits
row,Compound,binding to WT-CXCL12 (chemical shift perturbations)
1,O=C(O)CCn1cc(C(=O)c2ccccc2O)cc1-c1ccncc1 [compound 4],bind non-specifically
2,COc1ccc(C2C(C(=O)O)CC(=O)N2Cc2ccsc2)cc1 (stereo not shown) [compound 5],bind non-specifically
3,CC(C)O.CCCOc1ccc(C(Nc2ccc(F)cc2)P(=O)(O)O)cc1 (stereo not shown) [compound 6],induced chemical shift perturbations to residues associated with the I4/I6 binding site
4,O=C(O)CC1c2ccccc2CCN1C(=O)Nc1cccc(F)c1 (stereo not shown) [compound 7],induced chemical shift perturbations to residues associated with the I4/I6 binding site
